{"source": "patent US10765643B2", "about": "“Use of cannabidiol in the treatment of epilepsy” (GW Pharma Limited, priority 2014, dated 2020)", "key": {"[1]": {"tested_on": "seizures associated with Aicardi Syndrome", "test": "Expanded access compassionate use program: CBD added to baseline AED regimen, seizure frequency from seizure diaries", "format": "in vivo, human", "description": "Of 137 children and young adults with severe, childhood onset treatment-resistant epilepsy (TRE), 14 suffered from Aicardi syndrome. These subjects were tested with a highly purified extract of cannabidiol (CBD) obtained from a cannabis plant. The participants in the study were part of an expanded access compassionate use program for CBD.\nAll of these patients diagnosed with Aicardi Syndrome presented with multiple seizure types which included\nfocal seizures with impairment; infantile spasm; clonic seizures; tonic seizures; tonic-clonic seizures; atonic seizures; myoclonic seizures; absence seizures; and focal seizures evolving to secondary generalised seizures.\nAll patients entered a baseline period of 4 weeks when parents/caregivers kept prospective seizure diaries, noting all countable motor seizure types.\nThe patients then received a highly purified CBD extract (greater than 98% CBD w/w) in sesame oil, of known and constant composition, at a dose of 5 mg/kg/day in addition to their baseline anti-epileptic drug (AED) regimen.\nLaboratory testing for hematologic, liver, kidney function, and concomitant AED levels was performed at baseline, and after CBD therapy.\nAll patients were taking at least two concomitant anti-epileptic drugs. These included clobazam; levetiracetam; topiramate; stiripentol; phenobarbital; lacsamide; valproic acid; zonisamide. The average number of concomitant antiepileptic drugs being taken was 2.7.\nThere were 14 children and young adult patients who received at least 3 months of treatment all of whom suffered from treatment-resistant epilepsy which is characterised by Aicardi Syndrome.\nThe change from baseline in the number of different seizures and total number of seizures after 12 weeks treatment are summarized in Table 7 below."}, "[2]": {"test": "Solubility of drug substance in water", "format": "physicochemical", "excerpt": "The drug substance, CBD is insoluble in water. Sesame oil was selected as an excipient to solubilize the drug substance."}, "seizures [3]": {"tested_on": "seizures", "conditions": "200 mg/day pure CBD, four adult patients; seizure frequency unchanged in the remainder; cited from earlier work"}, "generalized epilepsy": {"tested_on": "generalized epilepsy", "conditions": "eight adult patients with generalized epilepsy; cited from earlier work"}, "[4]": {"tested_on": "seizures after pro-convulsant drugs or an electric current", "conditions": "mice; cited from earlier work"}, "seizures [5]": {"tested_on": "seizures", "conditions": "200 mg/day pure CBD, twelve institutionalized adult patients, open label; cited from earlier work"}, "Lennox-Gastaut syndrome": {"tested_on": "Lennox-Gastaut syndrome", "conditions": "one child with Lennox-Gastaut syndrome, CBD in an oily solution; cited from earlier work"}, "seizures [6]": {"tested_on": "seizures", "conditions": "Consroe et al., 1977; cited from earlier work"}, "[7]": {"conditions": "14 Aicardi Syndrome patients, after 12 weeks treatment, CBD 5 up to 25 mg/kg/day plus concomitant AED"}, "[8]": {"conditions": "Aicardi Syndrome patients, after 3 months of therapy"}}, "data": [{"smiles": "C=C(C)[C@@H]1CCC(C)=C[C@H]1c1c(O)cc(CCCCC)cc1O", "note": "[CBD, Cannabidiol]", "values": [{"measurement": "Average change in baseline (%) Convulsive seizures", "setting": "[1]; [7]", "result": "−77", "unit": "%"}, {"measurement": "Average change in baseline (%) Focal seizures with impairment", "setting": "[1]; [7]", "result": "−62", "unit": "%"}, {"measurement": "Average change in baseline (%) Infantile spasm", "setting": "[1]; [7]", "result": "−55.5", "unit": "%"}, {"measurement": "Average change in baseline (%) Total seizures", "setting": "[1]; [7]", "result": "−69", "unit": "%"}, {"measurement": "reduction in convulsive seizures", "setting": "[1]; [8]", "result": 77, "unit": "%"}, {"measurement": "reduction in focal seizures with impairment", "setting": "[1]; [8]", "result": 62, "unit": "%"}, {"measurement": "reduction of infantile spasms", "setting": "[1]; [8]", "result": 55.5, "unit": "%"}, {"measurement": "reduction in total seizures", "setting": "[1]; Aicardi Syndrome patients, after 3 months of therapy, average decrease", "result": 69, "unit": "%"}, {"measurement": "focal onset seizures evolving to secondary generalisation", "setting": "[1]; one patient, week 12, 47 seizures at baseline, earlier stage of program", "result": 17, "unit": "per month"}, {"measurement": "tonic-clonic seizures", "setting": "[1]; other patient, week 12, 7 seizures at baseline, earlier stage of program", "result": 5, "unit": "per month"}, {"measurement": "tonic seizures", "setting": "[1]; other patient, week 12, 67 seizures at baseline, earlier stage of program", "result": 6, "unit": "per month"}, {"measurement": "solubility in water", "setting": "[2]", "result": "insoluble"}, {"measurement": "patients who became seizure free", "setting": "seizures [3]", "result": "two of the four"}, {"measurement": "patients with marked reduction of seizures", "setting": "generalized epilepsy", "result": 4}, {"measurement": "prevention of seizures", "setting": "[4]", "result": "able to prevent seizures"}, {"measurement": "controlling seizures", "setting": "seizures [5]", "result": "ineffective"}, {"measurement": "seizure frequency", "setting": "Lennox-Gastaut syndrome", "result": "improvement"}]}, {"smiles": "CCCCCc1cc(O)c2c(c1)OC(C)(C)[C@@H]1CCC(C)=C[C@@H]21", "note": "[THC, Tetrahydro- cannabinol]", "values": [{"measurement": "pro-convulsant effect", "setting": "seizures [6]", "result": "pro-convulsant"}]}]}
